Columns and labels:
Test in all cases: relative viability (nuclei count vs DMSO), 5 days (fraction); higher = more cells survive
[1] = compound: CC(=O)Nc1cccc(-n2c(=O)n(C3CC3)c(=O)c3c(Nc4ccc(I)cc4F)n(C)c(=O)c(C)c32)c1 [Trametinib] + CC1(C)CCC(c2ccc(Cl)cc2)=C(CN2CCN(c3ccc(C(=O)NS(=O)(=O)c4ccc(N[C@H](CCN5CCOCC5)CSc5ccccc5)c(S(=O)(=O)C(F)(F)F)c4)cc3)CC2)C1 [Navitoclax] (partner 0.5 µM)
Method in brief: (§1)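 Cells from lung cancer lines were seeded into 1536-well plates and, one day later, dosed by pin tool. Treatments were either a single drug or a fixed dose of an anchor drug with five library-drug doses (not always all listed) in √10 steps. After 5 days, nuclei were stained in a one-step fixation (final 0.05% Triton X-100, 1% formaldehyde, 1 ug/ml Hoechst) and counted on 4× images, and relative viability is the treated-to-vehicle nuclei ratio, as the median of duplicate plates.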

[2] = compound: CC(=O)Nc1cccc(-n2c(=O)n(C3CC3)c(=O)c3c(Nc4ccc(I)cc4F)n(C)c(=O)c(C)c32)c1 [Trametinib] + CCNC(=O)c1noc(-c2cc(C(C)C)c(O)cc2O)c1-c1ccc(CN2CCOCC2)cc1 [Luminespib] (partner 0.01 µM)
Method in brief: as §1

[3] = compound: CC(=O)Nc1cccc(-n2c(=O)n(C3CC3)c(=O)c3c(Nc4ccc(I)cc4F)n(C)c(=O)c(C)c32)c1 [Trametinib] + Nc1ncn([C@H]2C[C@H](O)[C@@H](CO)O2)c(=O)n1 [Decitabine] (partner 2 µM)
Method in brief: as §1

[4] = compound: CN1C=C(C2=CC=CC=C21)/C=C\3/C4=C(C=CC=N4)NC3=O + Cc1cc(Nc2cc(N3CCN(C)CC3)nc(Sc3ccc(NC(=O)C4CC4)cc3)n2)n[nH]1 [Tozasertib] (partner 0.1 µM)
Method in brief: as §1

Row | Cell Line | relative viability ([1]; first compound 0.0025 µM) | relative viability ([1]; first compound 0.007906 µM) | relative viability ([1]; first compound 0.025 µM) | relative viability ([1]; first compound 0.07906 µM) | relative viability ([1]; first compound 0.25 µM) | relative viability ([2]; first compound 0.0025 µM) | relative viability ([2]; first compound 0.007906 µM) | relative viability ([2]; first compound 0.025 µM) | relative viability ([2]; first compound 0.07906 µM) | relative viability ([2]; first compound 0.25 µM) | relative viability ([3]; first compound 0.0025 µM) | relative viability ([3]; first compound 0.007906 µM) | relative viability ([3]; first compound 0.025 µM) | relative viability ([3]; first compound 0.07906 µM) | relative viability ([3]; first compound 0.25 µM) | relative viability ([4]; first compound 0.02 µM) | relative viability ([4]; first compound 0.06325 µM) | relative viability ([4]; first compound 0.2 µM) | relative viability ([4]; first compound 0.6325 µM) | relative viability ([4]; first compound 2 µM)
1 | NCI-H1651 | 1.02 | 0.943 | 0.933 | 0.844 | 0.778 | 0.866 | 0.736 | 0.749 | 0.791 | 0.654 | 0.559 | 0.689 | 0.48 | 0.422 | 0.333 | 0.799 | 0.673 | 0.664 | 0.698 | 0.728
2 | NCI-H1666 | 0.613 | 0.64 | 0.375 | 0.456 | 0.393 | 0.95 | 0.912 | 0.717 | 0.72 | 0.573 | 0.742 | 0.684 | 0.622 | 0.602 | 0.5 | 0.596 | 0.546 | 0.61 | 0.609 | 0.603
3 | NCI-H1734 | 0.865 | 0.736 |  | 0.657 | 0.474 | 0.208 | 0.169 | 0.173 | 0.149 | 0.15 | 0.508 | 0.438 |  | 0.426 | 0.453 | 0.281 | 0.311 |  | 0.295 | 0.284
4 | NCI-H1755 | 0.958 | 0.952 | 0.901 | 0.918 | 0.838 | 0.412 | 0.333 | 0.598 | 0.462 | 0.301 | 0.72 | 0.703 | 0.679 | 0.678 | 0.594 | 0.56 | 0.557 | 0.605 | 0.502 | 0.509
5 | NCI-H1793 | 0.36 | 0.345 | 0.265 | 0.216 | 0.133 | 0.304 | 0.159 | 0.142 | 0.173 | 0.17 | 0.458 | 0.4 | 0.447 | 0.334 | 0.228 | 0.306 | 0.37 | 0.296 | 0.258 | 0.197
6 | NCI-H1915 | 0.799 | 0.79 | 0.681 | 0.719 | 0.217 | 0.823 | 0.55 | 0.297 | 0.204 | 0.123 | 0.268 | 0.248 | 0.24 | 0.227 | 0.188 | 0.385 | 0.432 | 0.482 | 0.424 | 0.484

Reference: the supplement of paper PMC10307832
